Measurements: US20170137880A1, “METHOD FOR TREATING DEPRESSION AND MAJOR DEPRESSIVE DISORDER” (Takeda Pharmaceutical Company Limited, priority 2014, published 2017)

Key:
Format in all cases: in vivo, human
[1] = tested on: MDD individuals; assay: Treatment effect by MADRS and HAM-A scores in genetic subgroups; settings: for Treatment-specific effect (MADRS scores): 5-variant and 7-variant models
Protocol: (§1) Multicenter, randomized, double-blind, parallel-group, placebo-controlled, drug-referenced, fixed-dose studies were conducted to evaluate the efficacy and safety of vortioxetine (10, 15 and 20 mg/Day) in the acute treatment of adult patients with MDD. A total of 595 individuals meeting the diagnostic criteria from the DSM-IV-TR for recurrent MDD were included in the studies. The current major depressive disorder for each individual was confirmed by the Structured Clinical Interview for DSM Disorders (SCID). […] Individuals were treated with 10, 15 or 20 mg vortioxetine, or a different drug, or a placebo daily for 8 weeks.
(§2) Subjects were seen weekly during the first 2 weeks of treatment and then every 2 weeks up to the end of the 8-week treatment period. The primary outcome measure was change from baseline in MADRS total score after 8 Weeks of treatment. The Montgomery Asberg Depression Rating Scale (MADRS) is a depression rating scale consisting of 10 items, each rated 0 (no symptom) to 6 (severe symptom). The 10 items represent the core symptoms of depressive illness. The rating is based on a clinical interview with the patient, moving from broadly phrased questions about symptoms to more detailed ones, which allow a precise rating of severity, covering the most recent 7 days. Total score is from 0 to 60, with a higher the score being the more severe.
(§3) A composite score (or genetic score) was calculated via penalized regression using a set of focused genomic regions. The cutoff point of the genetic score that maximizes treatment specific effect was then identified. Statistical significance (via a parametric bootstrap approach) of the treatment effect for the subgroup defined by the optimal cutpoint was then determined.
A least square means plot of MADRS scores obtained during treatment with 10 mg vortioxetine is shown in FIG. 12B using the 7-variant model. […]

[2] = tested on: adult patients with MDD; assay: Response rate by treatment and genetic subgroup (responders: 50% decrease in MADRS total score from baseline at week 8); settings: for Response rate: 20 mg/day, 8 weeks; for No Response (number of subjects) / Response (number of subjects): Lu 20 mg only
Protocol: as §1, §2
Secondary outcome measures included the proportion of responders at week 8 (responders defined as a 50% decrease in MADRS total score from baseline); a change from baseline in MADRS total score at week 8; and a change in clinical status using CGI-I score at week 8. The Clinical Global Impression—Global Improvement (CGI-I) scale is a 7-point scale rated from 1 (very much improved) to 7 (very much worse). The investigator rated the patient's overall improvement relative to baseline, whether or not, in the opinion of the investigator, this was entirely due to the drug treatment.
Nucleic acid samples from the individuals were run on an Illumina™ HumanOmni5EXOME whole genome bead-chip array according to the manufacturer's protocol. The raw dataset of 595 samples times 4,641,218 variants was narrowed to 473 samples times 3,923,897 variants following quality control (QC).
as §3

[3] = tested on: adult MDD patients; assay: Cognition, Cognitive and Physical Functioning Questionnaire (CPFQ); settings: for Cognition (CPFQ): 7-variant model, adult MDD patients
Description: According to the CDC, cognitive impairment is when a person has trouble remembering, learning new things, concentrating, or making decisions that affect their everyday life. Cognitive impairment ranges from mild to severe. With mild impairment, people may begin to notice changes in cognitive functions, but still be able to do their everyday activities. Severe levels of impairment can lead to losing the ability to understand the meaning or importance of something and the ability to talk or write, resulting in the inability to live independently. Cognitive ability can be assessed by, for example, Massachusetts General Hospital Cognitive and Physical Functioning Questionnaire (see, e.g., Fava et al., J. Clin. Psychiatry, 67:11 (2006)) and/or the Digit Symbol Substitution Test (DSST) (see Mahableshwarker et al., Neuropsychopharmacology, in press 2015).
In FIG. 13, the term “SNP7=1” corresponds to patients in the subgroup identified by the 7-variant model; the term “SNP7=0” corresponds to patients not in the subgroup.

Br.Cc1ccc(Sc2ccccc2N2CCNCC2)c(C)c1 [vortioxetine, 1-[2-(2,4-Dimethyl-phenylsulfanyl)-phenyl]-piperazine, hydrobromide]
Treatment-specific effect (MADRS scores) ([1]; 10 mg): evidence for a treatment-specific effect | Treatment-specific effect (MADRS scores) ([1]; 20 mg): evidence for a treatment-specific effect | Response to treatment as measured by MADRS and HAM-A scores ([1]; MDD individuals with rs4045 and a CACNA1C variant): significantly enhanced response | Response rate ([2]; COL26A1 rs4045 and a CACNA1C variant positive): 14/17 | Response rate ([2]; Total): 40/120 | Response rate ([2]; Variant negative): 6/25 | Response rate ([2]; subgroup N/A): 28/78 | No Response (number of subjects) ([2]; <NA>): 50 | Response (number of subjects) ([2]; <NA>): 28 | No Response (number of subjects) ([2]; In the Subgroup): 3 | Response (number of subjects) ([2]; In the Subgroup): 14 | No Response (number of subjects) ([2]; Not in Subgroup): 19 | Response (number of subjects) ([2]; Not in Subgroup): 6 | Cognition (CPFQ) ([3]; 10 mg/day): evidence for improved cognition | Cognition (CPFQ) ([3]; 20 mg/day): evidence for improved cognition | Cognition ([3]; individuals with COL26A1 rs4045 and a CACNA1C variant, 20 mg/day for 8 weeks): improved cognition
